# Measurements taken from ChEMBL document CHEMBL1138490, “Gamma-aminobutyric acid amides of nortriptyline and fluoxetine display improved pain suppressing activity” (2009).
# Calls of active or inactive are those of the source. No cut-off for these calls is given here.
# Experiments:
# Mus musculus [1] = assay: Antinociceptive activity in BALB/c mouse assessed as […] at 10 mg/kg, po after 240 mins by hot plate method; assay type: functional, organism-based; parameters: dose 10 mg/kg
# Rattus norvegicus [2] = assay: Antiinflammatory activity against gamma carrageenan-induced paw edema in Wistar rat assessed as reduction in paw volume at 50 mg/kg, ip administered 2 hrs before carrageenan challenge measured after 24 hrs relative to control; assay type: functional, organism-based; parameters: dose 50 mg/kg
# Rattus norvegicus [3] = assay: Antiinflammatory activity against gamma carrageenan-induced paw edema in Wistar rat assessed as reduction in paw volume at 50 mg/kg, ip administered 2 hrs before carrageenan challenge measured after 4 hrs relative to control; assay type: functional, organism-based; parameters: dose 50 mg/kg
# Mus musculus [4] = assay: Antiinflammatory activity against formalin-induced BALB/c mouse skin assessed as reduction in TNFalpha level at 50 mg/kg, ip; assay type: functional, organism-based; parameters: dose 50 mg/kg
# Mus musculus [5] = assay: Antiinflammatory activity against formalin-induced BALB/c mouse skin assessed as reduction in TNFalpha level at to 0.5 mg/kg, po; assay type: functional, organism-based; parameters: dose 0.5 mg/kg
# Rattus norvegicus [6] = assay: Antiinflammatory activity against gamma carrageenan-induced paw edema in Wistar rat assessed as paw volume at 50 mg/kg, ip administered 2 to 4 hrs before carrageenan challenge relative to control; assay type: functional, organism-based; parameters: dose 50 mg/kg
# Mus musculus [7] = assay: Anxiolytic activity in BALB/c mouse assessed as immobility at equimolar oral dose relative to 15 mg/kg nortriptyline after 90 mins by open-field test (RVb= 458.4+/-41 s); assay type: functional
# Mus musculus [8] = assay: Antinociceptive activity in BALB/c mouse assessed as decrease in inhibition of paw withdrawal latency at 0.1 mg/kg, po after by hot plate method; assay type: functional, organism-based; parameters: dose 0.1 mg/kg
# Mus musculus [9] = assay: Antinociceptive activity against formalin-induced pain in BALB/c mouse assessed paw licking, biting or shaking at 5 mg/kg, po equimolar dose of nortriptyline administered 2 hrs before formalin challenge measured after 0 to 5 mins relative to control; assay type: functional, organism-based; parameters: dose 5 mg/kg
# Mus musculus [10] = assay: Antinociceptive activity in BALB/c mouse assessed as […] at 0.25 mg/kg, po after 240 mins by hot plate method; assay type: functional, organism-based; parameters: dose 0.25 mg/kg
# Mus musculus [11] = assay: Antinociceptive activity in BALB/c mouse assessed as paw withdrawal latency at 0.4 mg/kg, po equimolar dose of nortriptyline after 2 to 4 hrs by hot plate method; assay type: functional, organism-based; parameters: dose 0.4 mg/kg
# Mus musculus [12] = assay: Antinociceptive activity in BALB/c mouse assessed as increase in paw withdrawal latency time at 0.2 mg/kg, po equimolar dose of nortriptyline daily measured after 3 to 5 hrs on day 3 to 12; assay type: functional, organism-based; parameters: dose 0.2 mg/kg
# Rattus norvegicus [13] = assay: Antiinflammatory activity against gamma carrageenan-induced paw edema in Wistar rat assessed as reduction in paw volume at 5 mg/kg, po administered 2 hrs before carrageenan challenge measured after 24 hrs relative to control; assay type: functional, organism-based; parameters: dose 5 mg/kg
# Mus musculus [14] = assay: Antinociceptive activity in BALB/c mouse assessed as […] at 4.5 mg/kg, po equimolar dose of nortriptyline after 240 mins by hot plate method; assay type: functional, organism-based; parameters: dose 4.5 mg/kg
# Mus musculus [15] = assay: Antinociceptive activity against formalin-induced pain in BALB/c mouse assessed paw licking, biting or shaking at 5 mg/kg, po administered 2 hrs before formalin challenge measured after 25 to 35 mins relative to control; assay type: functional, organism-based; parameters: dose 5 mg/kg
# Rattus norvegicus [16] = assay: Antiinflammatory activity against gamma carrageenan-induced paw edema in Wistar rat assessed as reduction in paw volume at 5 mg/kg, po equimolar dose of nortriptyline administered 2 hrs before carrageenan challenge measured after 24 hrs relative; assay type: functional, organism-based; parameters: dose 5 mg/kg
# Mus musculus [17] = assay: Anxiolytic activity in BALB/c mouse assessed as immobility at equimolar oral dose relative to 5 mg/kg nortriptyline after 90 mins by open-field test (RVb= 458.4+/-41 s); assay type: functional
# Mus musculus [18] = assay: Anxiolytic activity in BALB/c mouse assessed as velocity at equimolar oral dose relative to 1 mg/kg nortriptyline after 90 mins by open-field test (RVb= 7.07+/-0.51 cm/s); assay type: functional
# Mus musculus [19] = assay: Antinociceptive activity against formalin-induced pain in BALB/c mouse assessed paw licking, biting or shaking at 0.5 mg/kg, po administered 2 hrs before formalin challenge measured after 25 to 35 mins relative to control; assay type: functional, organism-based; parameters: dose 0.5 mg/kg
# Mus musculus [20] = assay: Anxiolytic activity in BALB/c mouse assessed as distance moved at equimolar oral dose relative to 15 mg/kg nortriptyline after 90 mins by open-field test (RVb= 8485+/-610 cm); assay type: functional
# Mus musculus [21] = assay: Antinociceptive activity against formalin-induced pain in BALB/c mouse assessed paw licking, biting or shaking at 5 mg/kg, po equimolar dose of nortriptyline administered 2 hrs before formalin challenge measured after 25 to 35 mins relative to control; assay type: functional, organism-based; parameters: dose 5 mg/kg
# Mus musculus [22] = assay: Antinociceptive activity against formalin-induced pain in BALB/c mouse assessed paw licking, biting or shaking at 0.5 mg/kg, po equimolar dose of nortriptyline administered 2 hrs before formalin challenge measured after 0 to 5 mins relative to control; assay type: functional, organism-based; parameters: dose 0.5 mg/kg
# Rattus norvegicus [23] = assay: Antiinflammatory activity against gamma carrageenan-induced paw edema in Wistar rat assessed as paw volume at 5 mg/kg, po equimolar dose of nortriptyline administered 2 hrs before carrageenan challenge relative to control; assay type: functional, organism-based; parameters: dose 5 mg/kg
# Mus musculus [24] = assay: Antinociceptive activity in BALB/c mouse assessed as decrease in inhibition of paw withdrawal latency at 2.39 mg/kg, po after by hot plate method; assay type: functional, organism-based; parameters: dose 2.39 mg/kg
# Mus musculus [25] = assay: Antinociceptive activity against formalin-induced pain in BALB/c mouse assessed paw licking, biting or shaking at 0.5 mg/kg, po administered 2 hrs before formalin challenge measured after 0 to 5 mins relative to control; assay type: functional, organism-based; parameters: dose 0.5 mg/kg
# Mus musculus [26] = assay: Antinociceptive activity in BALB/c mouse assessed as paw withdrawal latency at 0.4 mg/kg, po after 2 to 4 hrs by hot plate method; assay type: functional, organism-based; parameters: dose 0.4 mg/kg
# Mus musculus [27] = assay: Anxiolytic activity in BALB/c mouse assessed as velocity at equimolar oral dose relative to 15 mg/kg nortriptyline after 90 mins by open-field test (RVb= 7.07+/-0.51 cm/s); assay type: functional
# Mus musculus [28] = assay: Antinociceptive activity in BALB/c mouse assessed as […] at 0.5 mg/kg, po equimolar dose of nortriptyline after 240 mins by hot plate method; assay type: functional, organism-based; parameters: dose 0.5 mg/kg
# Mus musculus [29] = assay: Antinociceptive activity in BALB/c mouse assessed as increase in paw withdrawal latency time at 0.2 mg/kg, po equimolar dose of nortriptyline daily measured after 3 to 5 hrs on day 1; assay type: functional, organism-based; parameters: dose 0.2 mg/kg
# Mus musculus [30] = assay: Anxiolytic activity in BALB/c mouse assessed as velocity at equimolar oral dose relative to 5 mg/kg nortriptyline after 90 mins by open-field test (RVb= 7.07+/-0.51 cm/s); assay type: functional
# Mus musculus [31] = assay: Anxiolytic activity in BALB/c mouse assessed as distance moved at equimolar oral dose relative to 5 mg/kg nortriptyline after 90 mins by open-field test (RVb= 8485+/-610 cm); assay type: functional
# Mus musculus [32] = assay: Antinociceptive activity in BALB/c mouse assessed as increase in paw withdrawal latency time at 0.2 mg/kg, po daily for 12 days measured after 3 to 5 hrs on day 1; assay type: functional, organism-based; parameters: dose 0.2 mg/kg
# Mus musculus [33] = assay: Antinociceptive activity in BALB/c mouse assessed as increase in paw withdrawal latency time at 0.2 mg/kg, po equimolar dose of nortriptyline daily measured after 3 to 5 hrs on day 10 to 12; assay type: functional, organism-based; parameters: dose 0.2 mg/kg
# Rattus norvegicus [34] = species: Rattus norvegicus; assay: Displacement of [3H]GABA from non selective GABA receptor in rat cerebral cortex; assay type: tissue-based; details: concentration not given here
# Mus musculus [35] = assay: Antinociceptive activity against formalin-induced pain in BALB/c mouse assessed paw licking, biting or shaking at 5 mg/kg, po administered 2 hrs before formalin challenge measured after 0 to 5 mins relative to control; assay type: functional, organism-based; parameters: dose 5 mg/kg
# Mus musculus [36] = assay: Antinociceptive activity against formalin-induced pain in BALB/c mouse assessed paw licking, biting or shaking at 0.5 mg/kg, po equimolar dose of nortriptyline administered 2 hrs before formalin challenge measured after 25 to 35 mins relative to control; assay type: functional, organism-based; parameters: dose 0.5 mg/kg
# Mus musculus [37] = assay: Antinociceptive activity in BALB/c mouse assessed as […] at 4.5 mg/kg, po after 240 mins by hot plate method; assay type: functional, organism-based; parameters: dose 4.5 mg/kg
# Mus musculus [38] = assay: Anxiolytic activity in BALB/c mouse assessed as immobility at equimolar oral dose relative to 1 mg/kg nortriptyline after 90 mins by open-field test (RVb= 458.4+/-41 s); assay type: functional
# Mus musculus [39] = assay: Anxiolytic activity in BALB/c mouse assessed as distance moved at equimolar oral dose relative to 1 mg/kg nortriptyline after 90 mins by open-field test (RVb= 8485+/-610 cm); assay type: functional
# Rattus norvegicus [40] = assay: Antiinflammatory activity against gamma carrageenan-induced paw edema in Wistar rat assessed as reduction in paw volume at 5 mg/kg, po equimolar dose of nortriptyline administered 2 hrs before carrageenan challenge measured after 4 hrs relative to control; assay type: functional, organism-based; parameters: dose 5 mg/kg
# Rattus norvegicus [41] = assay: Antiinflammatory activity against gamma carrageenan-induced paw edema in Wistar rat assessed as reduction in paw volume at 5 mg/kg, po administered 2 hrs before carrageenan challenge measured after 4 hrs relative to control; assay type: functional, organism-based; parameters: dose 5 mg/kg
# Rattus norvegicus [42] = species: Rattus norvegicus; assay: Displacement of [3H]muscimol from GABAA receptor in rat cerebral cortex; assay type: tissue-based; details: concentration not given here
# Mus musculus [43] = assay: Antinociceptive activity in BALB/c mouse assessed as […] at 0.25 mg/kg, po equimolar dose of nortriptyline after 240 mins by hot plate method; assay type: functional, organism-based; parameters: dose 0.25 mg/kg
structure (smiles),measurement,setting,value
CNCCC(Oc1ccc(C(F)(F)F)cc1)c1ccccc1 (stereo not given),Activity,Mus musculus [1],Active
NCC1(CC(=O)O)CCCCC1,Activity,Rattus norvegicus [2],inactive
same,Activity,Rattus norvegicus [3],inactive
same,Activity,Mus musculus [4],Active
same,Activity,Mus musculus [5],Active
same,Activity,Rattus norvegicus [6],Active
CN(CCC=C1c2ccccc2CCc2ccccc21)C(=O)CCCN.Cl [BL-1021],Activity,Mus musculus [7],572.8 s
same,Activity,Mus musculus [8],Active
same,Activity,Mus musculus [9],Active
same,Activity,Mus musculus [10],Active
same,Activity,Mus musculus [11],Active
same,Activity,Mus musculus [12],Active
same,Activity,Mus musculus [1],Active
same,Activity,Rattus norvegicus [13],inactive
same,Activity,Mus musculus [14],Active
same,Activity,Mus musculus [15],Active
same,Activity,Rattus norvegicus [16],inactive
same,Activity,Mus musculus [17],467.9 s
same,Activity,Mus musculus [18],6.72 cm/s
same,Activity,Mus musculus [19],Active
same,Activity,Mus musculus [20],7413 cm
same,Activity,Mus musculus [21],Active
same,Activity,Mus musculus [22],Active
same,Activity,Rattus norvegicus [23],Active
same,Activity,Mus musculus [24],Active
same,Activity,Mus musculus [25],Active
same,Activity,Mus musculus [26],Active
same,Activity,Mus musculus [27],6.18 cm/s
same,Activity,Mus musculus [28],Active
same,Activity,Mus musculus [29],Active
same,Activity,Mus musculus [30],6.85 cm/s
same,Activity,Mus musculus [31],8157 cm
same,Activity,Mus musculus [32],Active
same,Activity,Mus musculus [33],Active
same,Activity,Mus musculus [5],Active
same,inhibition,Rattus norvegicus [34],6%
same,Activity,Mus musculus [35],Active
same,Activity,Mus musculus [36],Active
same,Activity,Mus musculus [37],Active
same,Activity,Mus musculus [38],447.2 s
same,Activity,Mus musculus [39],8053 cm
same,Activity,Rattus norvegicus [40],inactive
same,Activity,Rattus norvegicus [41],inactive
same,inhibition,Rattus norvegicus [42],11%
same,Activity,Mus musculus [43],Active
